The pIC50 is the negative decadic logarithm of the IC50, by convention in mol/L. A lower pIC50 goes with a high IC50.

Data on 14 compounds can be found in patent US20230010886A1 (SUZHOU PUHE BIOPHARMA CO., LTD., priority 2019, published 2023).

The test system of one experiment is NCI-H358 cells. The experiment in a line: Combination treatment of a SHP2 inhibitor with other therapeutic agents, NSCLC with KRAS mutant xenograft. The experiment is classed as in vivo, BALB/c nude mice. The following applies: 10 mg/kg per day combined with CDK4/6 inhibitor SYB-020097 (30 mg/kg per day), oral once daily for 28 days, mice. The procedure:
NCI-H358 cells were expanded in culture, harvested and injected subcutaneously into 6-8 weeks old female BALB/c nude mice (5×10^6 cell/each mouse, supplemented with Matrigel (1:1) for tumor development, n=9 per group). Subsequent administration of a compound or combination of compounds by oral gavage started when the mean tumor size reached approximately 150-200 mm^3. During the treatment (once a day for 4 weeks), the tumor volumes were measured using a caliper. Statistical analysis of difference in tumor volume among the groups were evaluated using a one-way ANOVA. Vehicle alone was the negative control.

A further experiment relates to Mai-Pa-ca-2 cells. In words: Pancreatic cancer Mia-Pa-Ca-2 xenograft studies. The experiment is classed as in vivo, BALB/c nude mice. The procedure:
Mai-Pa-ca-2 cells were expanded in culture, harvested and injected subcutaneously into 6-8 weeks old female BALB/c nude mice (5×10^6 cell/each mouse, supplemented with Matrigel (1:1) for tumor development, n=9 per group). Subsequent administration of a compound by oral gavage started when the mean tumor size reached approximately 150-200 mm^3. During the treatment (once a day for 21 days), the tumor volumes were measured using a caliper. Statistical analysis of difference in tumor volume among the groups were evaluated using a one-way ANOVA. Vehicle alone was the negative control.

The test system of the next experiment is KYSE-520 cells. In words: Esophageal KYSE-520 xenograft model. The experiment is classed as in vivo, BALB/c nude mice. The note with it: oral 30 mg/kg per day, once a day for 4 weeks, mice. As to the method: KYSE-520 cells were expanded in culture, harvested and injected subcutaneously into 6-8 weeks old female BALB/c nude mice (5×10^6 cell/each mouse, supplemented with Matrigel (1:1) for tumor development, n=9 per group). Subsequent administration of a compound by oral gavage started when the mean tumor size reached approximately 150-200 mm^3. During the treatment (once a day for 4 weeks), the tumor volumes were measured using a caliper. Statistical analysis of difference in tumor volume among the groups were evaluated using a one-way ANOVA. Vehicle alone was the negative control.

The test system of another experiment is KYSE-520 cell line. The experiment in a line: Cell proliferation assay (CellTiter Glo), KYSE-520. The following applies: Homo sapiens, 3-5 days. In kind it is cell-based. The procedure: Firstly, the cells were seeded in 384-well cell culture plate and incubate overnight. The test compounds were added to the cell plate and incubated for 3-5 days. The cell plate was then detected using CellTiter Glo reagents.
(Cellular ATP, detected with luciferase, serves as a proxy for viable cell number.)

In the next experiment the target is T1, Full length SHP2 enzyme (Homo sapiens, UniProt Q06124).
T1 construct: Full length SHP2 enzyme (diluted to 0.1 nM in reaction buffer)
T1 sequence (Q06124 1-593): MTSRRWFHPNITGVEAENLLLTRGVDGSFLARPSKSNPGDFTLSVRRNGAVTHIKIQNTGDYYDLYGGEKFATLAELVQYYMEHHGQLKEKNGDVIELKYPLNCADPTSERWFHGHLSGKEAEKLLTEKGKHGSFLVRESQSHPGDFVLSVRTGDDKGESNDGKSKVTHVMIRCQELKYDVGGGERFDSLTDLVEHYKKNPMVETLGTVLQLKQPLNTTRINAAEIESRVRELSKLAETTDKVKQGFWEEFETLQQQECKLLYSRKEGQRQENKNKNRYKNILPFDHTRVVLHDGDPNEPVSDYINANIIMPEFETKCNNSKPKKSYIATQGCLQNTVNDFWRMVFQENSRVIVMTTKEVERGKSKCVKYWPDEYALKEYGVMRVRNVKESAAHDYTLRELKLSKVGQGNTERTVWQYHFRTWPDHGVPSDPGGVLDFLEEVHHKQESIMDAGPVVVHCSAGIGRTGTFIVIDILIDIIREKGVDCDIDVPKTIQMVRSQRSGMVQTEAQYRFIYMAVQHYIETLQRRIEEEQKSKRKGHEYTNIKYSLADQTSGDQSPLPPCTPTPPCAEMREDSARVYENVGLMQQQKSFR
The experiment in a line: SHP2 phosphatase assay. The note with it: 1 μM IRS-1 peptide, DiFMUP substrate. In kind it is biochemical. As to the method: IC50 values were determined at room temperature in 384-well black polystyrene plate, using a final reaction volume of 15 μL and the following assay buffer conditions: 60 mM Hepes (pH=7.2), 75 mM NaCl, 75 mM KCl, and 1 mM EDTA, 0.05% P-20, 5 mM dithiothreitol (DTT). Full length SHP2 enzyme (diluted to 0.1 nM in reaction buffer) were co-incubated with 1 μM IRS-1 peptide and 0.01 nM to 10 μM compounds of the disclosure for 60 min. The surrogate substrate DiFMUP (5 μL, 100 μM) was added, and incubated at rt for 60 min. The reaction was then quenched by the addition of 5 μL of a 40 μM solution of bpV(Phen). The fluorescence signal was monitored using a microplate reader (Envision, Perkin-Elmer) using excitation and emission wavelengths of 360 nm and 450 nm, respectively. The inhibitor dose-response curves were analyzed using normalized IC50 regression curve fitting with control-based normalization.

pIC50: −log10 of the molar value.

As for `C[C@@H]1OCC2(CCN(c3ncc(Sc4cccc(Cl)c4Cl)[nH]c3=O)CC2)[C@@H]1N`, the “improvement of combination over monotherapy” value in the experiment on NCI-H358 cells is recorded as “more than 50%”. Also, the “reduction of tumor growth, combination vs each compound alone” value with Mai-Pa-ca-2 cells (30 mg/kg per day co-administered with CDK4/6 inhibitor SYB-020097 (50 mg/kg per day)) and with Mai-Pa-ca-2 cells (30 mg/kg per day co-administered with MEK inhibitor SYB-020099 (1 mg/kg per day)) was “significantly higher reduction of tumor growth” in each case. The “anti-tumor activity compared with reference compound” value with KYSE-520 cells is given as “superior anti-tumor activities than reference compound RMC-4550”. Also, the tumor growth inhibition entry with KYSE-520 cells is “more than 90%”. `NC1COCC12CCN(c1ncc(Sc3cccc(Cl)c3Cl)[nH]c1=O)CC2` (centres unmarked) [Example 10, 3-(4-amino-2-oxa-8-azaspiro[4.5]decan-8-yl)-6-((2,3-dichlorophenyl)thio)pyrazin-2 (1H)-one] had a pIC50 with KYSE-520 cell line of over 5.30. In the case of `CC1(CN)CCN(c2ncc(Sc3cccc(NC(=O)c4c(O)nc5ccccn5c4=O)c3Cl)[nH]c2=O)CC1` [Example 29, N-(3-((5-(4-(aminomethyl)-4-methylpiperidin-1-yl)-6-oxo-1,6-dihydropyrazin-2-yl)thio)-2-chlorophenyl)-2-hydroxy-4-oxo-4H-pyrido[1,2-a]pyrimidine-3-carboxamide], the pIC50 with KYSE-520 cell line is over 5.30; on Full length SHP2 enzyme it was at least 7.30. The corresponding values for `CC1(CN)CCN(c2ncc(Sc3cccc(NC(=O)c4c(O)nc5sccn5c4=O)c3Cl)[nH]c2=O)CC1` [Example 31, N-(3-((5-(4-(aminomethyl)-4-methylpiperidin-1-yl)-6-oxo-1,6-dihydropyrazin-2-yl)thio)-2-chlorophenyl)-7-hydroxy-5-oxo-5H-thiazolo[3,2-a]pyrimidine-6-carboxamide] are over 5.30 and at least 7.30.

Regarding `N[C@@H]1COCC12CCN(c1ncc(Sc3cccc(Cl)c3Cl)[nH]c1=O)CC2` [Example 73, (S)-3-(4-amino-2-oxa-8-azaspiro[4.5]decan-8-yl)-6-((2,3-dichlorophenyl)thio)pyrazin-2 (1H)-one], the pIC50 in the experiment on KYSE-520 cell line was over 5.30; at Full length SHP2 enzyme, at least 7.30. For `C[C@@H]1OCC2(CCN(c3ncc(Sc4ccnc(Cl)c4Cl)[nH]c3=O)CC2)[C@@H]1N` [Example 81, 3-((3S,4S)-4-amino-3-methyl-2-oxa-8-azaspiro[4.5]decan-8-yl)-6-((2,3-dichloropyridin-4-yl)thio)pyrazin-2(1H)-one], the figures for the pIC50 in the experiment on KYSE-520 cell line and against Full length SHP2 enzyme were over 6.00 and at least 7.30, respectively. The corresponding values for `C[C@@H]1OCC2(CCN(c3ncc(Sc4cccc(F)c4F)[nH]c3=O)CC2)[C@@H]1N` [Example 82, 3-((3S,4S)-4-amino-3-methyl-2-oxa-8-azaspiro[4.5]decan-8-yl)-6-((2,3-difluorophenyl)thio)pyrazin-2(1H)-one] are over 5.30 and at least 7.30.

As to `C[C@@H]1OCC2(CCN(c3ncc(Sc4ccnc(F)c4Cl)[nH]c3=O)CC2)[C@@H]1N` [Example 83, 3-((3S,4S)-4-amino-3-methyl-2-oxa-8-azaspiro[4.5]decan-8-yl)-6-((3-chloro-2-fluoropyridin-4-yl)thio)pyrazin-2(1H)-one], the negative logarithm of the IC50 (pIC50) in the experiment on KYSE-520 cell line is over 6.00; at Full length SHP2 enzyme, at least 7.30. On to `C[C@@H]1OCC2(CCN(c3ncc(Sc4ccnc(F)c4F)[nH]c3=O)CC2)[C@@H]1N` [Example 84], for which the pIC50 in the experiment on KYSE-520 cell line was over 6.00; against Full length SHP2 enzyme it was at least 7.30. In the same order, the values of `C[C@@H]1OCC2(CCN(c3ncc(Sc4cccc(F)c4Cl)[nH]c3=O)CC2)[C@@H]1N` [Example 109, 3-((3S,4S)-4-amino-3-methyl-2-oxa-8-azaspiro[4.5]decan-8-yl)-6-((2-chloro-3-fluorophenyl)thio)pyrazin-2(1H)-one] are over 5.30 and at least 7.30. As to `Nc1nccc(Sc2cnc(N3CCC4(CCC[C@@H]4N)CC3)c(=O)[nH]2)c1Cl` [Example 133, (S)-6-((2-amino-3-chloropyridin-4-yl)thio)-3-(1-amino-8-azaspiro[4.5]decan-8-yl)pyrazin-2(1H)-one], on Full length SHP2 enzyme, the pIC50 is at least 7.30. As for `N[C@@H]1c2cccnc2CC12CCN(c1ncc(Sc3cccc(Cl)c3Cl)[nH]c1=O)CC2` [Example 134, (S)-3-(5-amino-5,7-dihydrospiro[cyclopenta[b]pyridine-6,4′-piperidin]-1′-yl)-6-((2,3-dichlorophenyl)thio)pyrazin-2(1H)-one], the pIC50 against Full length SHP2 enzyme is at least 7.30. The same measure, in the same setting: in the case of `N[C@H]1CCCC12CCN(c1ncc(Sc3ccnc(Cl)c3Cl)[nH]c1=O)CC2` [Example 135, (S)-3-(1-amino-8-azaspiro[4.5]decan-8-yl)-6-((2,3-dichloropyridin-4-yl)thio)pyrazin-2(1H)-one] it was at least 7.30. The same measure, in the same setting: then `[2H][C@@]1(N)[C@H](C)OCC12CCN(c1ncc(Sc3cccc(Cl)c3Cl)[nH]c1=O)CC2` [Example 136], with at least 7.30.
